Key:
[1] = Plasma levels of tradipitant at time of efficacy evaluation, PK analysis (Example 1); assay type: in vivo, human; conditions: 100 mg qd
Procedure: Baseline VAS scores are 76.1 and 77.2 for the tradipitant and placebo arms respectively. Efficacy is evaluated through a number of clinical research instruments. In addition, at the time of efficacy evaluation blood samples are collected for PK analysis in order to determine the plasma levels of tradipitant.
The average plasma concentrations of tradipitant across AM and PM-evaluated patients are between about 125 ng/mL and about 225 ng/mL. Patients evaluated in the afternoons (PM) (mean=about 20 hours post last administration) tend to have lower plasma concentrations of tradipitant than patients evaluated in the mornings (AM) (mean=about 15 hours post last administration). The average plasma concentration in the PM group is about 125 ng/mL, and the average plasma concentration in the AM group is about 225 ng/mL, the difference being largely attributable to the length of time post-administration.

[2] = Plasma concentration levels of tradipitant in healthy subjects (Example 2); assay type: in vivo, human
Procedure: A study is conducted in which healthy subject participants are orally administered 85 mg tradipitant on study day 3, and then 85 mg tradipitant Q12H on study days 4-16. Plasma concentration levels of tradipitant are measured on each of day 3, day 7, and day 11.
This study illustrates that administration of 85 mg tradipitant qd (on day 3) produces an average plasma concentration over hours 0-12 that is about 50% of the plasma concentration observed in the PM group in Example 1. On days 7 and 11, the average plasma concentration over hours 0-12 following administration of 85 mg bid (specifically, Q12H) tradipitant is about 150% of the plasma concentration observed in the PM group in Example 1. The average plasma concentration over hours 0-12 at each point is determined by dividing the AUC for hours 0-12 (in (hr.)×(ng/mL)) by 12 hours.

O=C(c1ccccc1Cl)c1cccnc1-c1nnn(Cc2cc(C(F)(F)F)cc(C(F)(F)F)c2)c1-c1ccncc1 [Tradipitant]
average plasma concentration ([1]; AM group, mean about 15 hours post last administration): about 225 ng/mL
plasma concentration at which patients tend to show greater efficacy ([1]; PK-efficacy correlation): > 100 ng/mL
average plasma concentration ([1]; PM group, mean about 20 hours post last administration): about 125 ng/mL
average plasma concentration over hours 0-12 relative to the PM group in Example 1 ([2]; 85 mg bid (Q12H), days 7 and 11): about 150%
average plasma concentration over hours 0-12 relative to the PM group in Example 1 ([2]; 85 mg qd, day 3): about 50%
